Data: ChEMBL document CHEMBL5360600, “Optimization of 1,2,4-Triazole-Based p97 Inhibitors for the Treatment of Cancer” (ACS Med Chem Lett, 2023)
Values after ≈ are worked out from the molar mass of the structure shown. Active and inactive are the calls of the source. No cut-off for these calls is given here.

Legend:
[1] = target: T1, Transitional endoplasmic reticulum ATPase (Homo sapiens, UniProt P55072); assay: Inhibition of p97 in human HeLa cells expressing UbG76V-GFP/ODD-Luc assessed as accumulation of Ub-GFP incubated for 6 hrs by confocal microscopic analysis; type: cell-based
Target sequence in this assay (P55072 whole entry): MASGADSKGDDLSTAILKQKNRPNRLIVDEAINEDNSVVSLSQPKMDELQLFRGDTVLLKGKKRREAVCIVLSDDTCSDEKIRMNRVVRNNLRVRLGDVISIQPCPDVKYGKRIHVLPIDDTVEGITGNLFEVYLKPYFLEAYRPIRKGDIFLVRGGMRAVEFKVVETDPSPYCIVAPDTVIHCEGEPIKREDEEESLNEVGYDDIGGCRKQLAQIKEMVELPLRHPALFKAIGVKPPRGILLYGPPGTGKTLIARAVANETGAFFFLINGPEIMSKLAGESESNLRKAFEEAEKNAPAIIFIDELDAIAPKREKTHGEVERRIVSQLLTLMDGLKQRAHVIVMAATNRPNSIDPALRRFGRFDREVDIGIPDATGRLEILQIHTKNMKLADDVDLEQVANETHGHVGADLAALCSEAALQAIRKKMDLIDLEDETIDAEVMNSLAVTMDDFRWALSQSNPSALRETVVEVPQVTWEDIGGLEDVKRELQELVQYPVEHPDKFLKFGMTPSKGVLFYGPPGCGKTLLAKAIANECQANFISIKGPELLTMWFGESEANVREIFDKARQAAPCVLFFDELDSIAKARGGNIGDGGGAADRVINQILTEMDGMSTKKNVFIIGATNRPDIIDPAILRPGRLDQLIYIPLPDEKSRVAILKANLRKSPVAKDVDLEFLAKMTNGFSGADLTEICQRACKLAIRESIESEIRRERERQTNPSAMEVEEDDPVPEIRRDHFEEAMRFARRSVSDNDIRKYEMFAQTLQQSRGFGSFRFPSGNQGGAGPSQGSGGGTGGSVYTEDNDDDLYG

[2] = Solubility of compound in PBS incubated for 30 minutes by clear-bottomed UV analysis; type: physicochemical
[3] = Metabolic stability in mouse liver microsome assessed as half life at 1 uM incubated upto 45 mins in presence of NADPH-regenerating system by LC-MS analysis; type: ADME; conditions: liver microsomes
[4] = target: T1, Transitional endoplasmic reticulum ATPase; assay: Inhibition of p97 (unknown origin) ATPase activity by Biomol Green Reagent based microplate reader analysis
Target sequence in this assay (P55072 whole entry): as above

HCT-116 = assay: Cytotoxicity against human HCT-116 cells assessed as reduction in cell viability incubated for 48 hrs by celltiter glo-luminescent assay; type: functional, cell-based; conditions: HCT-116, 48 h
[5] = target: T1, Transitional endoplasmic reticulum ATPase; assay: Inhibition of p97 in human HCT-116 cells assessed as increase in Ub-K48 level at 100 nM incubated for 6 hrs by quantitative sandwich immunoassay method relative to control; type: cell-based
Target sequence in this assay (P55072 2-806 limits assumed): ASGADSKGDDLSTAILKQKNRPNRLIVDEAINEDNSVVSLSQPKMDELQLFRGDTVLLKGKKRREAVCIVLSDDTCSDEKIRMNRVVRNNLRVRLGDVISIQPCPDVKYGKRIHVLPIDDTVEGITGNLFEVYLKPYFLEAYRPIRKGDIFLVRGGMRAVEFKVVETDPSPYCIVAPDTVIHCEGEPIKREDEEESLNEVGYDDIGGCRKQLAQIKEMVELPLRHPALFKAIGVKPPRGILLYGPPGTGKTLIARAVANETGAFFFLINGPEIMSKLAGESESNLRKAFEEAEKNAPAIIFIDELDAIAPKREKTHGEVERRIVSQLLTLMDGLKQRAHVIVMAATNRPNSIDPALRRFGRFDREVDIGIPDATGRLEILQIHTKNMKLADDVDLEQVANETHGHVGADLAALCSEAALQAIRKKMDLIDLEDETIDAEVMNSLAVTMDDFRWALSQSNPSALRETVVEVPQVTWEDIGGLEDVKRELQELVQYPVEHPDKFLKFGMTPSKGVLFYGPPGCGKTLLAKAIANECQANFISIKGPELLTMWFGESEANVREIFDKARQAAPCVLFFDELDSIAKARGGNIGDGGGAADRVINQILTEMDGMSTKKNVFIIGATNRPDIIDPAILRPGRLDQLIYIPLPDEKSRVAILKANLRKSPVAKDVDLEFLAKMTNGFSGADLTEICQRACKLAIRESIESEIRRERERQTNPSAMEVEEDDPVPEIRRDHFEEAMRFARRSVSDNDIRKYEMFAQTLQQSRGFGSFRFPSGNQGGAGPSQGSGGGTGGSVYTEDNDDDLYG

[6] = Solubility of compound at pH 7.4 in PBS by UV/visible spectrophotometer analysis; type: physicochemical
[7] = AUClast in CD-1 mouse at 50 mg/kg, ip incubated upto 24 hrs by LC-MS/MS analysis; type: ADME, organism-based; design: time < 24 hrs, dose 50 mg/kg, route ip; conditions: in vivo
[8] = target: T1, Transitional endoplasmic reticulum ATPase; assay: Inhibition of p97 in human HCT-116 cells assessed as increase in caspase-3 level at 0.04 to 6 uM pretreated for 2 hrs followed by washout and measured after 6 to 24 hrs by quantitative sandwich immunoassay method; type: cell-based; conditions: dose 0.04-6 µM
Target sequence in this assay (P55072 2-806 limits assumed): as above

[9] = Clearance in CD-1 mouse at 5 mg/kg, iv incubated upto 24 hrs by LC-MS/MS analysis; type: ADME, organism-based; conditions: in vivo
[10] = Half life in CD-1 mouse at 50 mg/kg, po incubated upto 24 hrs by LC-MS/MS analysis; type: ADME, organism-based; conditions: in vivo
[11] = Oral bioavailability in CD-1 mouse at 50 mg/kg incubated upto 24 hrs by LC-MS/MS analysis; type: ADME, organism-based; conditions: in vivo
[12] = Half life in CD-1 mouse at 50 mg/kg, ip incubated upto 24 hrs by LC-MS/MS analysis; type: ADME, organism-based; conditions: in vivo
[13] = Cmax in CD-1 mouse at 50 mg/kg, ip incubated upto 24 hrs by LC-MS/MS analysis; type: ADME, organism-based; design: time < 24 hrs, dose 50 mg/kg, route ip; conditions: in vivo
[14] = Half life in CD-1 mouse at 5 mg/kg, iv incubated upto 24 hrs by LC-MS/MS analysis; type: ADME, organism-based; conditions: in vivo
[15] = Cmax in CD-1 mouse at 50 mg/kg, po incubated upto 24 hrs by LC-MS/MS analysis; type: ADME, organism-based; design: dose 50 mg/kg, time < 24 hrs, route po; conditions: in vivo
[16] = AUClast in CD-1 mouse at 50 mg/kg, po incubated upto 24 hrs by LC-MS/MS analysis; type: ADME, organism-based; design: time < 24 hrs, dose 50 mg/kg, route po; conditions: in vivo
[17] = AUClast in CD-1 mouse at 5 mg/kg, iv incubated upto 24 hrs by LC-MS/MS analysis; type: ADME, organism-based; design: dose 5 mg/kg, time < 24 hrs, route iv; conditions: in vivo
[18] = Volume of distribution at steady state in CD-1 mouse at 5 mg/kg, iv incubated upto 24 hrs by LC-MS/MS analysis; type: ADME, organism-based; conditions: in vivo, read-out: Vdss
[19] = target: T1, Transitional endoplasmic reticulum ATPase; assay: Inhibition of p97 in human HCT-116 cells assessed as increase in caspase-3 level at 1 uM incubated for 24 hrs by quantitative sandwich immunoassay method relative to control; type: cell-based
Target sequence in this assay (P55072 2-806 limits assumed): as above

| SMILES | EC50 [1] | solubility at 0.5 h [2] | half-life at […], 1 µM [3] | IC50 [4] | IC50 (HCT-116) | other results |
| --- | --- | --- | --- | --- | --- | --- |
| CN1CCC(NC(=O)OCC#Cc2cc(F)c(OCc3nnc(S[C@@H]4C=CCCC4)n3-c3cccnc3)cc2F)CC1 | – | – | – | – | 4740 nM | – |
| CN1CCC(NC(=O)OCC#Cc2c(F)cc(OCc3nnc(SC4C=CCCC4)n3-c3cccnc3)cc2F)CC1 (centres undefined) | 360 nM | – | – | 11 nM | 730 nM | inhibition [5]: 123% |
| [2H]C1([2H])C([2H])([2H])C([2H])([2H])C([2H])(Sc2nnc(COc3cc(F)c(C#CCOC(=O)NC4CCN(C)CC4)cc3F)n2-c2cccnc2)C1([2H])[2H] | 640 nM | – | 8 min | 9.7 nM | 1370 nM | solubility [6]: 83 µM (≈ 49.1 µg/mL) |
| [2H]C1([2H])C([2H])([2H])C([2H])([2H])C([2H])(Sc2nnc(COc3ccc(-c4ccc(S(C)(=O)=O)cc4)c(C)c3)n2-c2cccnc2)C1([2H])[2H] | – | 29 µM (≈ 15.4 µg/mL) | 6 min | – | – | – |
| Cc1cc(OCc2nnc(SC3CCCC3)n2-c2cccnc2)ccc1-c1ccc(S(C)(=O)=O)cc1 | – | – | 9 min | – | – | – |
| Cc1cc(OCc2nnc(SC3C=CCCC3)n2-c2cccnc2)ccc1C#CCOC(=O)NCCN1CCN(C)CC1 (centres undefined) | 890 nM | – | 8 min | 21 nM | 2800 nM | – |
| Cc1cc(OCc2nnc(SC3C=CCCC3)n2-c2cccnc2)ccc1C#CCNS(C)(=O)=O (centres undefined) | 2700 nM | – | 7 min | – | – | – |
| CN1CCN(CCNC(=O)OCC#Cc2ccc(OCc3nnc(SC4C=CCCC4)n3-c3cccnc3)cc2F)CC1 (centres undefined) | 820 nM | – | 4 min | – | 1350 nM | solubility [6]: 60 µM (≈ 36.3 µg/mL) |
| COCCSc1nnc(COc2ccc(-c3ccc(S(C)(=O)=O)cc3)c(C)c2)n1-c1cccnc1 | > 40000 nM | 260 µM (≈ 133 µg/mL) | 13 min | 2010 nM | – | – |
| Cc1cc(OCc2nnc(SC3CCOCC3)n2-c2cccnc2)ccc1-c1ccc(S(C)(=O)=O)cc1 | 47000 nM | 150 µM (≈ 80.5 µg/mL) | < 10 min | 460 nM | – | – |
| Cc1cc(OCc2nnc(SC3CCC(F)(F)CC3)n2-c2cccnc2)ccc1-c1ccc(S(C)(=O)=O)cc1 | > 40000 nM | 110 µM (≈ 62.8 µg/mL) | < 10 min | 300 nM | – | – |
| CN1CCC(NC(=O)OCC#Cc2cc(F)c(OCc3nnc(S[C@H]4C=CCCC4)n3-c3cccnc3)cc2F)CC1 | – | – | 5 min | – | 340 nM | AUC(0-t) at 24 h [7]: 9290 ng·h/mL; inhibition [8]: Active; clearance [9]: 234 mL/min/kg; solubility [6]: 74 µM (≈ 44 µg/mL); half-life [10]: 126 min; bioavailability [11]: 17%; half-life [12]: 96 min; Cmax [13]: 12700 ng/mL; half-life [14]: 41.4 min; Cmax [15]: 366 ng/mL; AUC(0-t) at 24 h [16]: 601 ng·h/mL; AUC(0-t) at 24 h [17]: 371 ng·h/mL; Vd [18]: 5.9 L/kg; inhibition [19]: Active |
| Cc1cc(OCc2nnc(SC3C=CCCC3)n2-c2cccnc2)ccc1C#CCNC(C)C (centres undefined) | 2700 nM | – | 8 min | – | – | – |

Further lines, with some results ahead:

| EC50 [1] | solubility at 0.5 h [2] | half-life at […], 1 µM [3] | IC50 [4] | SMILES | IC50 (HCT-116) | other results |
| --- | --- | --- | --- | --- | --- | --- |
| > 40000 nM | 9 µM (≈ 4.96 µg/mL) | 13 min | 320 nM | Cc1cc(OCc2nnc(SC3CCCC=C3F)n2-c2cccnc2)ccc1-c1ccc(S(C)(=O)=O)cc1 (centres undefined) | – | – |
| 1800 nM | – | < 10 min | 29 nM | Cc1cc(OCc2nnc(SC3C=CCCC3)n2-c2cccnc2)ccc1C#CCOC(=O)N1CCN(C)CC1 (centres undefined) | 2400 nM | – |
| 2400 nM | 170 µM (≈ 90.9 µg/mL) | 8 min | 60 nM | Cc1cc(OCc2nnc(SC3CCCCC3)n2-c2cccnc2)ccc1-c1ccc(S(C)(=O)=O)cc1 | – | – |
| 940 nM | 140 µM (≈ 74.6 µg/mL) | < 10 min | 34 nM | Cc1cc(OCc2nnc(SC3C=CCCC3)n2-c2cccnc2)ccc1-c1ccc(S(C)(=O)=O)cc1 (centres undefined) | – | – |
| 1500 nM | 130 µM (≈ 68.7 µg/mL) | 8 min | 41 nM | Cc1cc(OCc2nnc(SC3C=CCCC3)n2-c2cccnc2)ccc1C#CCNC1CCN(C)CC1 (centres undefined) | – | – |
| > 40000 nM | 24 µM (≈ 14.2 µg/mL) | 9 min | – | Cc1cc(OCc2nnc(SC3C=CCCC3)n2-c2cccnc2)ccc1C#CCNS(=O)(=O)c1ccc(F)cc1 (centres undefined) | – | – |
| 4500 nM | 53 µM (≈ 22.9 µg/mL) | 24 min | – | Cc1cc(OCc2nnc(SC3C=CCCC3)n2-c2cccnc2)ccc1C#CCN (centres undefined) | – | – |
| 1300 nM | 39 µM (≈ 16.9 µg/mL) | 1.2 min | 40 nM | Cc1cc(OCc2nnc(SC3C=CCCC3)n2-c2cccnc2)ccc1C#CCO (centres undefined) | 4700 nM | solubility [6]: 39 µM (≈ 16.9 µg/mL) |
| > 40000 nM | 370 µM (≈ 198 µg/mL) | > 60 min | > 6000 nM | Cc1cc(OCc2nnc(SC3CCNCC3)n2-c2cccnc2)ccc1-c1ccc(S(C)(=O)=O)cc1 | – | – |
| 11000 nM | 92 µM (≈ 48.9 µg/mL) | 7 min | 150 nM | Cc1cc(OCc2nnc(SC3C=CCCC3)n2-c2cccnc2)ccc1C#CCNC(=O)OC(C)(C)C (centres undefined) | – | – |
| 1300 nM | – | 8 min | – | CN1CCC(NC(=O)OCC#Cc2ccc(OCc3nnc(SC4C=CCCC4)n3-c3cccnc3)c(F)c2F)CC1 (centres undefined) | 3200 nM | solubility [6]: 54 µM (≈ 32.1 µg/mL) |
| 820 nM | 61 µM (≈ 34.9 µg/mL) | 7 min | 23 nM | Cc1cc(OCc2nnc(SC3C=CCCC3)n2-c2cccnc2)ccc1C#CCOC(=O)NC1CCN(C)CC1 (centres undefined) | 2100 nM | solubility [6]: 61 µM (≈ 34.9 µg/mL) |
| – | – | 3 min | – | CN1CCC(NC(=O)OCC#Cc2cc(F)c(OCc3nnc(SC4C=CCCC4)n3-c3cccnc3)cc2F)CC1 (centres undefined) | 850 nM | solubility [6]: 71 µM (≈ 42.2 µg/mL); inhibition [5]: 133% |
| 1900 nM | – | – | 32 nM | CCC(=O)NCC#Cc1ccc(OCc2nnc(SC3C=CCCC3)n2-c2cccnc2)cc1C (centres undefined) | – | – |
